Data from ChEMBL document CHEMBL3779806, “5-Carba-pterocarpens: A new scaffold with anti-HCV activity” (Eur J Med Chem, 2016).
The source made the active and inactive calls. The calls are words filed in the database; no cut-off is given here.

Assays:
Hepatitis C virus [1] = experiment: Antiviral activity against HCV genotype 1b infected in Huh7/Rep-Feo1b cells assessed as inhibition of viral RNA replication at 50 uM after 48 hrs by luciferase reporter gene assay relative to control; format: functional, Hepacivirus hominis; conditions: Huh-7, 48 h
Hepatitis C virus [2] = experiment: Antiviral activity against HCV genotype 2a infected in Huh7.5-FGR-JC1-Rluc2A cells assessed as inhibition of viral RNA replication at 50 uM after 48 hrs by luciferase reporter gene assay relative to control; format: functional, Hepacivirus hominis
Hepatitis C virus [3] = experiment: Antiviral activity against HCV genotype 1b infected in Huh7/Rep-Feo1b cells assessed as inhibition of viral RNA replication after 48 hrs by luciferase reporter gene assay; format: functional, organism-based, Hepacivirus hominis; conditions: Huh-7, 48 h
Hepatitis C virus [4] = experiment: Antiviral activity against HCV genotype 2a infected in Huh7.5-FGR-JC1-Rluc2A cells assessed as inhibition of viral RNA replication after 48 hrs by luciferase reporter gene assay; format: functional, organism-based, Hepacivirus hominis
[5] = Cytotoxicity against human Huh7.5 cells assessed as reduction in cell viability after 48 hrs by MTS assay; format: cell-based, Huh-7
[6] = Selectivity index, ratio of CC50 for human Huh7.5 cells to EC50 for HCV genotype 1b infected in Huh7/Rep-Feo1b cells; parameters: species or system Huh-7
[7] = Selectivity index, ratio of CC50 for human Huh7.5 cells to EC50 for HCV genotype 2a infected in Huh7.5-FGR-JC1-Rluc2A cells; parameters: species or system Huh-7
Hepacivirus hominis [8] = experiment: Inhibition of recombinant HCV NS5B RNA dependent RNA polymerase activity assessed as reduction in [alpha-32P]UTP incorporation using poly(rA)-U12 as template/primer at 50 uM incubated for 1 hr by liquid scintillation counting method relative to control
Hepacivirus hominis [9] = experiment: Inhibition of HCV NS5B RNA dependent RNA polymerase activity infected in BHK-NS5B-FRLuc cells at 50 uM incubated for 40 hrs by dual luciferase reporter gene assay relative to control; format: cell-based
[10] = Cytotoxicity against hamster BHK cells assessed as cell viability at 50 uM after 40 hrs by luciferase reporter gene assay relative to control; format: cell-based, Mesocricetus auratus; conditions: read-out: Activity

COc1ccc2c(c1)CCc1c-2oc2cc(O)ccc12
inhibition at 50 µM (Hepatitis C virus [1]): 97.9% | inhibition at 50 µM (Hepatitis C virus [2]): 99.8% | EC50 (Hepatitis C virus [3]): 19.9 µM | EC50 (Hepatitis C virus [4]): 1.5 µM | CC50 at 48 h [5]: 106 µM | Ratio CC50/EC50 [6]: 5.3 | Ratio CC50/EC50 [7]: 70.6 | inhibition (Hepacivirus hominis [8]): 36.2% | inhibition (Hepacivirus hominis [9]): 37% | viability at 40 h, 50 µM [10]: ≥ 80%

Oc1ccc2c(c1)-c1oc3ccccc3c1CC2
inhibition at 50 µM (Hepatitis C virus [1]): 95.1% | inhibition at 50 µM (Hepatitis C virus [2]): 98.4% | EC50 (Hepatitis C virus [3]): 27.9 µM | EC50 (Hepatitis C virus [4]): 2.3 µM | CC50 at 48 h [5]: 96.8 µM | Ratio CC50/EC50 [6]: 3.5 | Ratio CC50/EC50 [7]: 42.1 | inhibition (Hepacivirus hominis [8]): 38.5% | inhibition (Hepacivirus hominis [9]): 39.4% | viability at 40 h, 50 µM [10]: ≥ 80%

Oc1ccc2c(c1)-c1oc3cc(O)ccc3c1CC2
inhibition at 50 µM (Hepatitis C virus [1]): 49.3% | inhibition at 50 µM (Hepatitis C virus [2]): 97.8% | EC50 (Hepatitis C virus [4]): 6 µM | CC50 at 48 h [5]: 157 µM | Ratio CC50/EC50 [7]: 26.1 | inhibition (Hepacivirus hominis [8]): 33.1% | inhibition (Hepacivirus hominis [9]): 36.1% | viability at 40 h, 50 µM [10]: ≥ 80%

Oc1ccc2c3c(oc2c1)-c1cccc(O)c1CC3
inhibition at 50 µM (Hepatitis C virus [1]): 96.7% | inhibition at 50 µM (Hepatitis C virus [2]): 99.7% | EC50 (Hepatitis C virus [3]): 5.9 µM | EC50 (Hepatitis C virus [4]): 2.4 µM | CC50 at 48 h [5]: 59.5 µM | Ratio CC50/EC50 [6]: 10.1 | Ratio CC50/EC50 [7]: 24.7 | inhibition (Hepacivirus hominis [8]): 38% | inhibition (Hepacivirus hominis [9]): 33.3% | viability at 40 h, 50 µM [10]: ≥ 80%

Oc1ccc2c3c(oc2c1)-c1cc(O)c(O)cc1CC3
inhibition at 50 µM (Hepatitis C virus [1]): 98.6% | inhibition at 50 µM (Hepatitis C virus [2]): 96.9% | EC50 (Hepatitis C virus [3]): 5.5 µM | EC50 (Hepatitis C virus [4]): 6.1 µM | CC50 at 48 h [5]: 115 µM | Ratio CC50/EC50 [6]: 20.9 | Ratio CC50/EC50 [7]: 18.8 | inhibition (Hepacivirus hominis [8]): inactive | inhibition (Hepacivirus hominis [9]): inactive | viability at 40 h, 50 µM [10]: ≥ 80%

Oc1ccc2c(c1)CCc1c-2oc2cc(O)ccc12
inhibition at 50 µM (Hepatitis C virus [1]): 98.1% | inhibition at 50 µM (Hepatitis C virus [2]): 99.6% | EC50 (Hepatitis C virus [3]): 12.3 µM | EC50 (Hepatitis C virus [4]): 1.9 µM | CC50 at 48 h [5]: 84.5 µM | Ratio CC50/EC50 [6]: 6.8 | Ratio CC50/EC50 [7]: 44.4 | inhibition (Hepacivirus hominis [8]): inactive | inhibition (Hepacivirus hominis [9]): inactive | viability at 40 h, 50 µM [10]: ≥ 80%

Oc1ccc2c3c(oc2c1)-c1ccccc1CC3
inhibition at 50 µM (Hepatitis C virus [1]): 90.1% | inhibition at 50 µM (Hepatitis C virus [2]): 97.2% | EC50 (Hepatitis C virus [3]): 13.9 µM | EC50 (Hepatitis C virus [4]): 5.7 µM | CC50 at 48 h [5]: 99.9 µM | Ratio CC50/EC50 [6]: 7.2 | Ratio CC50/EC50 [7]: 15.8 | inhibition (Hepacivirus hominis [8]): inactive | inhibition (Hepacivirus hominis [9]): inactive | viability at 40 h, 50 µM [10]: ≥ 80%

c1ccc2c(c1)CCc1c-2oc2ccccc12
inhibition at 50 µM (Hepatitis C virus [1]): 50.7% | inhibition at 50 µM (Hepatitis C virus [2]): 86.5% | EC50 (Hepatitis C virus [3]): 40.7 µM | EC50 (Hepatitis C virus [4]): 15.3 µM | CC50 at 48 h [5]: > 200 µM | Ratio CC50/EC50 [6]: >4.9 | Ratio CC50/EC50 [7]: >13 | inhibition (Hepacivirus hominis [8]): inactive | inhibition (Hepacivirus hominis [9]): inactive | viability at 40 h, 50 µM [10]: ≥ 80%
